# From US11236129B2, “IL-17A binding peptides and medical uses thereof” (Dompe' Farmaceutici S.P.A., priority 2018, dated 2022)
# Residues, ends and D or L forms follow the SMILES beside them.
# Target: IL-17RA/IL17RC dimerization induced by IL-17A (Homo sapiens, UniProt Q16552)
# Assay: IL-17RA/IL17RC dimerization assay in response to IL-17A (PathHunter Cytokine Receptor Assay)
# Assay type: cell-based
# Settings: IL-17A at EC80; read-out: IC50 in IL-17RA/IL7RC dimerization assay
# Method: The peptides of Table 7 were tested for their ability to inhibit the binding of IL-17A to its receptor and the subsequent interaction of IL-17RA and IL17RC.
# Interleukin receptor RA and RC dimerization assay (DiscoverX) was used to measure the interaction of the receptor chains IL-17RA and IL17RC upon activation by IL-17A in the absence or presence of the peptides of Table 7.
# In the PathHunter® Cytokine Receptor Assay, one cytokine receptor chain is tagged with a small peptide epitope ProLink (PK) and the other chain is tagged with Enzyme Acceptor (EA). Ligand binding induces dimerization of the two receptors, facilitating complementation of PK and EA fragments. This interaction generates an active unit of b-galactosidase, which is detected using a chemiluminescent substrate. PathHunter cell lines were expanded from freezer stocks according to standard procedures. Cells were seeded in a total volume of 20 μL into white walled, 384-well microplates and incubated for the appropriate time prior to testing. For agonist activity inhibition, cells were incubated with sample to induce response. Intermediate dilution of sample stocks was performed to generate 5× sample in assay buffer. 5 μL of 5× sample was added to cells and incubated at 37° C. or room temperature for 60 minutes. Vehicle concentration was 1%. 5 μL of 6×EC80 agonist (IL-17A) in assay buffer was added to the cells and incubated at 37° C. for 6 to 16 hours depending on the assay. 1. […] For some assays, activity was detected using a high sensitivity detection reagent (PathHunter Flash Kit) to improve assay performance. In these assays, an equal volume of detection reagent (25 or 30 uL) was added to the wells, followed by a one hour incubation at room temperature. Microplates were read following signal generation with a PerkinElmer Envision™ instrument for chemiluminescent signal detection. Compound activity was analyzed using CBIS data analysis suite (ChemInnovation, CA). % Inhibition=100%×(1−(mean RLU of test sample−mean RLU of vehicle control)/(mean RLU of EC80 control−mean RLU of vehicle control)).
# IL-17RA/IL17RC dimerization induced by IL-17A, sequence (Q16552 24-155): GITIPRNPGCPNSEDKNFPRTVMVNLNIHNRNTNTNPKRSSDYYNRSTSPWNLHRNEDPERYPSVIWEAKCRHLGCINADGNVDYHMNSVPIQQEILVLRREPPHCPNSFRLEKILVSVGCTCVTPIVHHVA
row,SMILES,IC50 [nM]
1,CC[C@H](C)[C@H](NC(=O)[C@H](Cc1c[nH]c2ccccc12)NC(=O)[C@H](CCC(=O)O)NC(=O)[C@H](Cc1ccc(O)cc1)NC(=O)[C@H](CC(C)C)NC(=O)[C@H](CC(=O)O)NC(=O)[C@H](C)NC(=O)[C@@H]1CCCN1C(=O)[C@@H](NC(=O)[C@@H](NC(=O)[C@@H](NC(=O)[C@H](CCSC)NC(=O)[C@@H](NC(=O)[C@@H](C)O[C@H]1[C@H](O[C@@H]2O[C@H](CO)[C@@H](O)[C@H](O)[C@H]2NC(C)=O)[C@@H](CO)OC(O)[C@@H]1NC(C)=O)[C@@H](C)CC)C(C)C)[C@@H](C)O)[C@@H](C)CC)C(=O)N[C@@H](CCC(=O)O)C(=O)N[C@@H](CCC(=O)O)C(N)=O (some centres unmarked) [BIO-3],< 1000
2,CCCCCCCCCC(=O)N[C@H](C(=O)N[C@@H](CCSC)C(=O)N[C@H](C(=O)N[C@H](C(=O)N[C@H](C(=O)N1CCC[C@H]1C(=O)N[C@@H](C)C(=O)N[C@@H](CC(=O)O)C(=O)N[C@@H](CC(C)C)C(=O)N[C@@H](Cc1ccc(O)cc1)C(=O)N[C@@H](CCC(=O)O)C(=O)N[C@@H](Cc1c[nH]c2ccccc12)C(=O)N[C@H](C(=O)N[C@@H](CCC(=O)O)C(=O)N[C@@H](CCC(=O)O)C(N)=O)[C@@H](C)CC)[C@@H](C)CC)[C@@H](C)O)C(C)C)[C@@H](C)CC [BIO-4],< 1000
3,CC[C@H](C)[C@H](NC(=O)[C@@H](NC(=O)[C@@H](NC(=O)[C@H](Cc1c[nH]cn1)NC(=O)[C@@H](NC(C)=O)C(C)C)C(C)C)[C@@H](C)O)C(=O)N1CCC[C@H]1C(=O)N[C@@H](C)C(=O)N[C@@H](CC(N)=O)C(=O)N[C@@H](CC(C)C)C(=O)N[C@@H](Cc1c[nH]c2ccccc12)C(=O)N[C@@H](CCC(=O)O)C(=O)N[C@@H](Cc1c[nH]c2ccccc12)C(=O)N[C@H](C(=O)N[C@@H](CCCNC(=N)N)C(=O)N[C@@H](CCCNC(=N)N)C(N)=O)C(C)C [SEQ ID NO: 116] (Ac-VHVTIPANLWEWVRR-NH2),< 500
4,CC[C@H](C)[C@H](NC(=O)[C@@H](NC(=O)[C@@H](NC(=O)[C@H](Cc1c[nH]cn1)NC(=O)[C@@H](NC(C)=O)C(C)C)C(C)C)[C@@H](C)O)C(=O)N1CCC[C@H]1C(=O)N[C@@H](C)C(=O)N[C@@H](CC(=O)O)C(=O)N[C@@H](Cc1ccccc1)C(=O)N[C@@H](Cc1c[nH]c2ccccc12)C(=O)N[C@@H](CCC(=O)O)C(=O)N[C@@H](Cc1c[nH]c2ccccc12)C(=O)N[C@H](C(=O)N[C@@H](CCCNC(=N)N)C(=O)N[C@@H](CCCNC(=N)N)C(N)=O)C(C)C [SEQ ID NO: 117] (Ac-VHVTIPADFWEWVRR-NH2),< 500
5,CC[C@H](C)[C@H](NC(=O)[C@@H](NC(=O)[C@@H](NC(=O)[C@H](Cc1c[nH]cn1)NC(=O)[C@@H](NC(C)=O)C(C)C)C(C)C)[C@@H](C)O)C(=O)N1CCC[C@H]1C(=O)N[C@@H](C)C(=O)N[C@@H](CC(=O)O)C(=O)N[C@@H](CC(C)C)C(=O)N[C@@H](Cc1ccc(O)cc1)C(=O)N[C@@H](CCC(=O)O)C(=O)N[C@@H](Cc1c[nH]c2ccccc12)C(=O)N[C@H](C(=O)N[C@@H](CCCNC(=N)N)C(=O)N[C@@H](CCCNC(=N)N)C(N)=O)C(C)C [SEQ ID NO: 118] (Ac-VHVTIPADLYEWVRR-NH2),< 500
6,CC[C@H](C)[C@H](NC(=O)[C@@H](NC(=O)[C@@H](NC(=O)[C@H](Cc1c[nH]cn1)NC(=O)[C@@H](NC(C)=O)C(C)C)C(C)C)[C@@H](C)O)C(=O)N1CCC[C@H]1C(=O)N[C@@H](C)C(=O)N[C@@H](CC(=O)O)C(=O)N[C@@H](CC(C)C)C(=O)N[C@@H](Cc1c[nH]c2ccccc12)C(=O)N[C@@H](CC(N)=O)C(=O)N[C@@H](Cc1c[nH]c2ccccc12)C(=O)N[C@H](C(=O)N[C@@H](CCCNC(=N)N)C(=O)N[C@@H](CCCNC(=N)N)C(N)=O)C(C)C [SEQ ID NO: 119] (Ac-VHVTIPADLWNWVRR-NH2),< 500
7,CC[C@H](C)[C@H](NC(=O)[C@@H](NC(=O)[C@@H](NC(=O)[C@H](Cc1c[nH]cn1)NC(=O)[C@@H](NC(C)=O)C(C)C)C(C)C)[C@@H](C)O)C(=O)N1CCC[C@H]1C(=O)N[C@@H](C)C(=O)N[C@@H](CC(=O)O)C(=O)N[C@@H](CC(C)C)C(=O)N[C@@H](Cc1c[nH]c2ccccc12)C(=O)N[C@@H](CCC(=O)O)C(=O)N[C@@H](Cc1ccccc1)C(=O)N[C@H](C(=O)N[C@@H](CCCNC(=N)N)C(=O)N[C@@H](CCCNC(=N)N)C(N)=O)C(C)C [SEQ ID NO: 120] (Ac-VHVTIPADLWEFVRR-NH2),< 500
8,CC[C@H](C)[C@H](NC(=O)[C@H](Cc1ccc(O)cc1)NC(=O)[C@@H](NC(=O)[C@H](Cc1c[nH]cn1)NC(=O)[C@@H](NC(C)=O)C(C)C)C(C)C)C(=O)N1CCC[C@H]1C(=O)N[C@@H](C)C(=O)N[C@@H](CCC(=O)O)C(=O)N[C@@H](CC(C)C)C(=O)N[C@@H](Cc1c[nH]c2ccccc12)C(=O)N[C@@H](CCC(=O)O)C(=O)N[C@@H](Cc1c[nH]c2ccccc12)C(=O)N[C@H](C(=O)N[C@@H](CCCNC(=N)N)C(=O)N[C@@H](CCCNC(=N)N)C(N)=O)C(C)C [SEQ ID NO: 122] (Ac-VHVYIPAELWEWVRR-NH2),< 500
9,CC[C@H](C)[C@H](NC(=O)[C@@H](NC(=O)[C@@H](NC(=O)[C@H](Cc1c[nH]cn1)NC(=O)[C@@H](NC(C)=O)C(C)C)C(C)C)[C@@H](C)O)C(=O)N1CCC[C@H]1C(=O)N[C@@H](C)C(=O)N[C@@H](CCC(=O)O)C(=O)N[C@@H](Cc1c[nH]c2ccccc12)C(=O)N[C@@H](Cc1c[nH]c2ccccc12)C(=O)N[C@@H](CCC(=O)O)C(=O)N[C@@H](Cc1c[nH]c2ccccc12)C(=O)N[C@H](C(=O)N[C@@H](CCCNC(=N)N)C(=O)N[C@@H](CCCNC(=N)N)C(N)=O)C(C)C [SEQ ID NO: 123] (Ac-VHVTIPAEWWEWVRR-NH2),< 500
10,CC(=O)N[C@H](C(=O)N[C@@H](Cc1c[nH]cn1)C(=O)N[C@@H](Cc1ccccc1)C(=O)N[C@H](C(=O)N[C@@H](Cc1ccccc1)C(=O)N1CCC[C@H]1C(=O)N[C@@H](CCC(N)=O)C(=O)N[C@@H](CC(=O)O)C(=O)N[C@@H](CC(C)C)C(=O)N[C@@H](Cc1c[nH]c2ccccc12)C(=O)N[C@@H](CCC(=O)O)C(=O)N[C@@H](Cc1c[nH]c2ccccc12)C(=O)N[C@H](C(=O)N[C@@H](CCCNC(=N)N)C(=O)N[C@@H](CCCNC(=N)N)C(N)=O)C(C)C)[C@@H](C)O)C(C)C [SEQ ID NO: 124] (Ac-VHFTFPQDLWEWVRR-NH2),< 500
11,CC(=O)N[C@H](C(=O)N[C@@H](Cc1c[nH]cn1)C(=O)N[C@@H](Cc1ccccc1)C(=O)N[C@H](C(=O)N[C@@H](Cc1ccccc1)C(=O)N1CCC[C@H]1C(=O)N[C@@H](CCC(N)=O)C(=O)N[C@@H](CC(=O)O)C(=O)N[C@@H](Cc1ccccc1)C(=O)N[C@@H](Cc1c[nH]c2ccccc12)C(=O)N[C@@H](CCC(=O)O)C(=O)N[C@@H](Cc1c[nH]c2ccccc12)C(=O)N[C@H](C(=O)N[C@@H](CCCNC(=N)N)C(=O)N[C@@H](CCCNC(=N)N)C(N)=O)C(C)C)[C@@H](C)O)C(C)C [SEQ ID NO: 125] (Ac-VHFTFPQDFWEWVRR-NH2),< 500
12,CC[C@H](C)[C@H](NC(=O)[C@@H](NC(=O)[C@H](Cc1ccccc1)NC(=O)[C@H](Cc1c[nH]cn1)NC(=O)[C@@H](NC(C)=O)C(C)C)[C@@H](C)O)C(=O)N1CCC[C@H]1C(=O)N[C@@H](CCC(N)=O)C(=O)N[C@@H](CC(=O)O)C(=O)N[C@@H](CC(C)C)C(=O)N[C@@H](Cc1ccc(O)cc1)C(=O)N[C@@H](CCC(=O)O)C(=O)N[C@@H](Cc1c[nH]c2ccccc12)C(=O)N[C@H](C(=O)N[C@@H](CCCNC(=N)N)C(=O)N[C@@H](CCCNC(=N)N)C(N)=O)C(C)C [SEQ ID NO: 126] (Ac-VHFTIPQDLYEWVRR-NH2),< 500
13,CC(=O)N[C@H](C(=O)N[C@@H](Cc1c[nH]cn1)C(=O)N[C@@H](Cc1ccccc1)C(=O)N[C@H](C(=O)N[C@@H](Cc1ccccc1)C(=O)N1CCC[C@H]1C(=O)N[C@@H](CCC(N)=O)C(=O)N[C@@H](CC(=O)O)C(=O)N[C@@H](CC(C)C)C(=O)N[C@@H](Cc1c[nH]c2ccccc12)C(=O)N[C@@H](CC(N)=O)C(=O)N[C@@H](Cc1c[nH]c2ccccc12)C(=O)N[C@H](C(=O)N[C@@H](CCCNC(=N)N)C(=O)N[C@@H](CCCNC(=N)N)C(N)=O)C(C)C)[C@@H](C)O)C(C)C [SEQ ID NO: 127] (Ac-VHFTFPQDLWNWVRR-NH2),< 500
14,CC(=O)N[C@H](C(=O)N[C@@H](Cc1c[nH]cn1)C(=O)N[C@@H](Cc1ccccc1)C(=O)N[C@H](C(=O)N[C@@H](Cc1ccccc1)C(=O)N1CCC[C@H]1C(=O)N[C@@H](CCC(N)=O)C(=O)N[C@@H](CC(=O)O)C(=O)N[C@@H](CC(C)C)C(=O)N[C@@H](Cc1c[nH]c2ccccc12)C(=O)N[C@@H](CCC(=O)O)C(=O)N[C@@H](Cc1ccccc1)C(=O)N[C@H](C(=O)N[C@@H](CCCNC(=N)N)C(=O)N[C@@H](CCCNC(=N)N)C(N)=O)C(C)C)[C@@H](C)O)C(C)C [SEQ ID NO: 128] (Ac-VHFTFPQDLWEFVRR-NH2),< 500
